The source of these data is US8436180B2, “Substituted-4-aryl-1,4-dihydro-1,6-naphthyridinamides and use thereof” (Bayer Intellectual Property GmbH, priority 2007, dated 2013).

Assay [1] deals with T1, human mineralocorticoid receptor (MR) (Homo sapiens, UniProt P08235).
T1 construct: expressed in transfected cells; host or cells: CHO K1 (Chinese hamster ovary), stably transfected
T1 sequence (P08235 734-984 limits assumed): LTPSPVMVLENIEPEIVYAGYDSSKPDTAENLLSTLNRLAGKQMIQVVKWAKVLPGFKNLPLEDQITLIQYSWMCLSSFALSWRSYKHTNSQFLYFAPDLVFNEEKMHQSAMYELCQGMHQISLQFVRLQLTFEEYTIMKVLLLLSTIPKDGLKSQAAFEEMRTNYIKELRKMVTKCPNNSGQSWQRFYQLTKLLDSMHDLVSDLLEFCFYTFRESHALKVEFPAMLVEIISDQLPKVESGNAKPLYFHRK
In words: Cellular in vitro assay to determine the inhibitory MR activity (GAL4-MR chimera luciferase reporter in CHO K1 cells). The class given is cell-based. The settings on record: antagonism of aldosterone-stimulated luciferase activity. From the text:
1. Cellular In Vitro Assay to Determine the Inhibitory MR Activity and MR Selectivity Compared with Other Steroid Hormone Receptors
Antagonists of the human mineralocorticoid receptor (MR) are identified, and the activity of the compounds described herein is quantified with the aid of a recombinant cell line. The cell is originally derived from a hamster ovary epithelial cell (Chinese Hamster Ovary, CHO K1, ATCC: American Type Culture Collection, VA 20108, USA).
An established chimera system in which the ligand-binding domains of human steroid hormone receptors are fused to the DNA-binding domain of the yeast transcription factor GAL4 is used in this CHO K1 cell line. The GAL4-steroid hormone receptor chimeras produced in this way are cotransfected and stably expressed with a reporter construct in the CHO cells.
To generate the GAL4-steroid hormone receptor chimeras, the GAL4 DNA binding domain (amino acids 1-147) from the vector pFC2-dbd (from Stratagene) is cloned with the PCR-amplified ligand-binding domains of the mineralocorticoid receptor (MR, amino acids 734-985), of the glucocorticoid receptor (GR, amino acids 443-777), of the progesterone receptor (PR, amino acids 680-933) and of the androgen receptor (AR, amino acids 667-919) into the vector pIRES2 (from Clontech). […]
The MR, GR, PR and AR cells are plated out in medium (Optimem, 2.5% FCS, 2 mM glutamine, 10 mM HEPES) in 96- (or 384- or 1536-) well microtiter plates on the day before the assay and are kept in a cell incubator (96% humidity, 5% v/v CO2, 37° C.). […] After a further incubation time of 5 to 6 hours, the luciferase activity is measured with the aid of a video camera. The measured relative light units as a function of the substance concentration result in a sigmoidal stimulation curve. The IC50 values are calculated with the aid of the GraphPad PRISM computer program (Version 3.02).

The subject of assay [2] is aldosterone-induced sodium retention. Kind of assay: In vivo assay for detecting anti-mineralocorticoid activity on anesthetized dogs. Further details: species or system dog. To be noted: anesthetized dogs under continuous aldosterone infusion (0.6 μg/kg/h); positive control.
Method: In Vivo Assay for Detecting Anti-Mineralocorticoid Activity on Anesthetized Dogs
Male or female mongrel dogs (mongrels, Marshall BioResources, USA) with a weight between 20 and 30 kilograms are anesthetized with pentobarbital (30 mg/kg intravenously; Narcoren®, Merial, Germany). Alcuronium chloride (3 mg/animal intravenously; Alloferin®, ICN Pharmaceuticals, Germany) is used in addition as muscle relaxant. The dogs are intubated and ventilated with an oxygen/ambient air mixture (40/60 Vol.-%) (about 5-6 liters/min). The ventilation takes place with a ventilator supplied by Draeger (Sulla 808) and is monitored with a CO2 analyzer (from Engstrom). […]
The primary aim of the test is to investigate the effect of test compounds with antimineralocorticoid receptor activity on the aldosterone-induced sodium retention. […] A continuous infusion of aldosterone (0.6 μg/kg/h) leads after 3 hours to a decrease in the sodium/potassium ratio in the urine (sodium and potassium are determined by flame photometry). […]
The primary signals are amplified if necessary (Gould amplifier, Gould Instrument Systems, Valley View, USA or Edwards Vigilance-Monitor, Edwards, Irvine, USA) and subsequently fed into the Ponemah system (DataSciences Inc., Minneapolis, USA) for analysis. The signals are recorded continuously throughout the test period, further processed digitally by this software and averaged over 30 seconds.

For the compound `CCOc1ncc(C)c2c1C(c1ccc(C#N)cc1OC)C(C(N)=O)=C(C)N2` (racemic) [Example 4, 4-(4-Cyano-2-methoxyphenyl)-5-ethoxy-2,8-dimethyl-1,4-dihydro-1,6-naphthyridine-3-carboxamide], the 50% inhibitory concentration (IC50) in assay [1] was determined as 23 nM.

As to `CC(=O)S[C@@H]1CC2=CC(=O)CC[C@]2(C)[C@H]2CC[C@@]3(C)[C@@H](CC[C@@]34CCC(=O)O4)[C@H]12` [Spironolactone], the “sodium/potassium ratio in the urine” value in assay [2] is “increases the sodium/potassium ratio in the urine dose-dependently”. In turn, `CCOc1ncc(C)c2c1[C@H](c1ccc(C#N)cc1OC)C(C(N)=O)=C(C)N2` [5 [(−)-enantiomer]] yielded an IC50 in assay [1] of 16 nM. In turn, `CCOc1nccc2c1C(c1ccc(C#N)cc1OC)C(C(N)=O)=C(C)N2` (stereo not shown) [Example 1, 4-(4-Cyano-2-methoxyphenyl)-5-ethoxy-2-methyl-1,4-dihydro-1,6-naphthyridine-3-carboxamide] showed an IC50 in assay [1] of 35 nM.
